Experiment [1] concerns the target T1, Progesterone receptor (Homo sapiens, UniProt P06401).
T1 sequence (P06401 whole entry): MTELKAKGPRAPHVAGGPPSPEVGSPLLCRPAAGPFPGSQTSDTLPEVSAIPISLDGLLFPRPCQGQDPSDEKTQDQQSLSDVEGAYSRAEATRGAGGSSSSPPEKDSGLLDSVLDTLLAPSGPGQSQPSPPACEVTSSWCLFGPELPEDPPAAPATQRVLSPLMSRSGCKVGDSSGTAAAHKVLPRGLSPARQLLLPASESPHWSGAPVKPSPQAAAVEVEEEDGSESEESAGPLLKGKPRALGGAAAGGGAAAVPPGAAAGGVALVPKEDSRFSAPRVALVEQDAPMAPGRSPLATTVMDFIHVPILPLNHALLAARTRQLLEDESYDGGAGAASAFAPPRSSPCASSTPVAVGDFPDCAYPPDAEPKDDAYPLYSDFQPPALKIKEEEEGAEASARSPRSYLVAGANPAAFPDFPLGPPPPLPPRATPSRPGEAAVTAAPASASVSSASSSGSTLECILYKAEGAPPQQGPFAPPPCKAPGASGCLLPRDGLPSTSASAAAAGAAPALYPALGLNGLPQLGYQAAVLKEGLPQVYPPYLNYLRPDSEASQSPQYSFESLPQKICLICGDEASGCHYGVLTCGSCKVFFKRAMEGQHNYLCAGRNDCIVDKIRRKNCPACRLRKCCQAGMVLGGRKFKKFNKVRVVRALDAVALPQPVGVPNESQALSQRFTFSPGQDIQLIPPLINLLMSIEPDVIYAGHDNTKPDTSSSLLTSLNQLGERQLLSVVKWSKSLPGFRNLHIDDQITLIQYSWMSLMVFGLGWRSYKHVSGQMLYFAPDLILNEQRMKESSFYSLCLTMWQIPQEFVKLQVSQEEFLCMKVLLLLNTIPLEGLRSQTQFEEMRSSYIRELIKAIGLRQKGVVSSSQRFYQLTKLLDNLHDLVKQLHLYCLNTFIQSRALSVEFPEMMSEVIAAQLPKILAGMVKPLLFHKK
Briefly: Binding affinity at human PR.

Experiment [2] deals with T2, Androgen receptor (Homo sapiens, UniProt P10275).
T2 sequence (P10275 whole entry): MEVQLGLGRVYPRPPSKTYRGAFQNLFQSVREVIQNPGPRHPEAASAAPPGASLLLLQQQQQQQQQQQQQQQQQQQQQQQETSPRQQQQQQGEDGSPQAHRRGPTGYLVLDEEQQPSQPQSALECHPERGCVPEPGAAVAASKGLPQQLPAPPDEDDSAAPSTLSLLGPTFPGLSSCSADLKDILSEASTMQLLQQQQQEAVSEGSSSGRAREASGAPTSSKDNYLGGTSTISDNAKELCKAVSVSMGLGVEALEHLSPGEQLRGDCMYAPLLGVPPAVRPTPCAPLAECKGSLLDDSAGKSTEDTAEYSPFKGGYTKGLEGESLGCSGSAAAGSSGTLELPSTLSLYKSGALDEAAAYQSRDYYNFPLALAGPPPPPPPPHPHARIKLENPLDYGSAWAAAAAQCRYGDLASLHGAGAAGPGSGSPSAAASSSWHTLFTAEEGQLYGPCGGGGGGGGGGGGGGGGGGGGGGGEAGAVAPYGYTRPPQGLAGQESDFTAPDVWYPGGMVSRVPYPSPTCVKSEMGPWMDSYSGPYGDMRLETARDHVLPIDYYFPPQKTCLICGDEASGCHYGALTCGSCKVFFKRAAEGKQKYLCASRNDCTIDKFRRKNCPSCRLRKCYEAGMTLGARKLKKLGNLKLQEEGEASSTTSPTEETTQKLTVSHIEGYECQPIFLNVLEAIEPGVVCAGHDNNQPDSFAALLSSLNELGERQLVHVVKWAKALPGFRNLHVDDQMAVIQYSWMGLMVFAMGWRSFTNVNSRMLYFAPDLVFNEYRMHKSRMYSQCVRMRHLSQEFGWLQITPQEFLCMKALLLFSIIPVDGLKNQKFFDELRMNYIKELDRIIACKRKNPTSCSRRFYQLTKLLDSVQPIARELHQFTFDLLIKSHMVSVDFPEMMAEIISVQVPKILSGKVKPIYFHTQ
Briefly: Antagonist activity at human AR in MDA-MB453-MMTV-luci cells by functional assay. Type of experiment: cell-based.

Experiment [3] concerns the target T2, Androgen receptor. Put plainly: Displacement of [3H]DHT from human recombinant AR expressed in Sf9 cells.
In experiment [4] the test system is Syrian golden hamster. Put plainly: Reduction of wax ester in Golden Syrian hamster ear model relative to control. Further details: scale not given: the % may be the effect or the level left. Format: functional, Mesocricetus auratus.

Results on 19 compounds are retold here after ChEMBL document CHEMBL1137443, “Preparation of 4-aryl-2-trifluoromethylbenzonitrile derivatives as androgen receptor antagonists for topical suppression of sebum production” (Bioorg Med Chem Lett, 2007).

For `COc1ccc(-c2ccc(C#N)c(C(F)(F)F)c2)cc1`, the IC50 in experiment [1] worked out at 5520 nM; in experiment [2], 0.8 nM; in experiment [3], 56.7 nM.

Consider `N#Cc1ccc(-c2ccc(O)cc2)cc1C(F)(F)F`, for which the values for the concentration for half-maximal inhibition (IC50) in experiment [1], in experiment [2] and in experiment [3] were over 10000 nM, 11.9 nM and 61.2 nM, respectively.

Regarding `Cc1ccccc1-c1ccc(C#N)c(C(F)(F)F)c1`, the IC50 in experiment [2] was over 1000 nM; in experiment [3], 146 nM.

Turning to `Cc1cccc(-c2ccc(C#N)c(C(F)(F)F)c2)c1`, the concentration for half-maximal inhibition (IC50) in experiment [3] turned out to be 1900 nM.

`COC(=O)COc1ccccc1-c1ccc(C#N)c(C(F)(F)F)c1`: the concentration for half-maximal inhibition (IC50) in experiment [3] came out at 1310 nM.

`N#Cc1ccc(-c2ccccc2OCCO)cc1C(F)(F)F`: the half-maximal inhibitory concentration (IC50) in experiment [3] was determined as 1540 nM.

Turning to `COCCOCCOc1ccccc1-c1ccc(C#N)c(C(F)(F)F)c1`, the concentration for half-maximal inhibition (IC50) in experiment [3] was 8140 nM.

`N#Cc1ccc(-c2ccccc2Cl)cc1C(F)(F)F`: the IC50 in experiment [3] is 9.8 nM.

For the compound `COc1ccccc1-c1ccc(C#N)c(C(F)(F)F)c1`, the IC50 in experiment [1] stood at 3250 nM; in experiment [2] it was 20.1 nM; in experiment [3] it was 37 nM.

Consider `COCCOc1ccccc1-c1ccc(C#N)c(C(F)(F)F)c1`, for which, in experiment [3], the 50% inhibitory concentration (IC50) stood at 2230 nM.

Consider `N#Cc1ccc(-c2ccccc2O)cc1C(F)(F)F`, for which the IC50 in experiment [1] amounted to 4450 nM; in experiment [2], 0.02 nM; in experiment [3], 39.9 nM. In experiment [4], this compound had an Activity of 86%.

As to `N#Cc1ccc(-c2cccc(O)c2)cc1C(F)(F)F`, in experiment [3], the IC50 came out at 229 nM.

For the compound `Cc1ccc(-c2ccc(C#N)c(C(F)(F)F)c2)cc1`, the figures for the IC50 in experiment [2] and in experiment [3] were 843 nM and 200 nM, respectively.

For `N#Cc1ccc(-c2c(O)cccc2O)cc1C(F)(F)F`, in experiment [3], the IC50 amounted to 989 nM.

Regarding `N#Cc1ccc(-c2ccccc2C(F)(F)F)cc1C(F)(F)F`, the figures for the IC50 in experiment [2] and in experiment [3] were over 1 nM and 10.9 nM, respectively.

Turning to `COc1cccc(OC)c1-c1ccc(C#N)c(C(F)(F)F)c1`, the IC50 was found to be 399 nM in experiment [2] and 14.7 nM in experiment [3].

For the compound `COc1cccc(-c2ccc(C#N)c(C(F)(F)F)c2)c1`, the half-inhibitory concentration (IC50) in experiment [1] worked out at 9460 nM; in experiment [2] it was 140 nM; in experiment [3], 955 nM.

For the compound `N#Cc1ccc(-c2ccccc2OCC(=O)O)cc1C(F)(F)F`, the half-inhibitory concentration (IC50) in experiment [3] is over 10000 nM.

`CC1(C)C(=O)N(c2ccc(C#N)c(C(F)(F)F)c2)C(=O)N1CCCCO` [RU-58841] gave an Activity in experiment [4] of 95%.
